The text below walks through data of paper PMC11174011, “In Vitro and Molecular Docking Evaluation of the Anticholinesterase and Antidiabetic Effects of Compounds from Terminalia macroptera Guill. & Perr. (Combretaceae)” (Molecules, 2024).

Like-named read-outs stand apart in the source and are kept apart here.

The target in experiment [1] is AChE (electric eel source) (Electrophorus electricus, UniProt O42275). The experiment is described as follows: biochemical.
The target of experiment [2] is BChE (horse serum source) (Equus caballus, UniProt P81908). The experiment is described as follows: biochemical.
Chain of BChE (horse serum source) (P81908 whole entry): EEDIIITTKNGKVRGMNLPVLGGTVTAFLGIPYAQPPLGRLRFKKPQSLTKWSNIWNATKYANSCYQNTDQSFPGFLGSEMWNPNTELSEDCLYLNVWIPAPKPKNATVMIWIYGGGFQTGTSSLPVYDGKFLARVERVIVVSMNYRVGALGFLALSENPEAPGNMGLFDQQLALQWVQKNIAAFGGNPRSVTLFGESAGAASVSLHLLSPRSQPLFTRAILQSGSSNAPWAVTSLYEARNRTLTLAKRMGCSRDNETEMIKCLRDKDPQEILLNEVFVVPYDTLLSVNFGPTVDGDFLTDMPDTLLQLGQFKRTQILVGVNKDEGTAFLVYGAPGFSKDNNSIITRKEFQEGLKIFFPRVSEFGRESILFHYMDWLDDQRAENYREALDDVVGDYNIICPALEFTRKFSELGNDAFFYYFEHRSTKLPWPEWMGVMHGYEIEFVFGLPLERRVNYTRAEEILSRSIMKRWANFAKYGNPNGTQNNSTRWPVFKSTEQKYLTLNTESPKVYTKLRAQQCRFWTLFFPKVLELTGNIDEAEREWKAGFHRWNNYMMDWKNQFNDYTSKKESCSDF
Text: A standard spectrophotometric method was used to measure the anticholinesterase activity using both the butyrylcholinesterase (BChE) and acetylcholinesterase (AChE) enzymes, as described elsewhere but with slight modifications [59, 60]. […] The substrates used in the AChE and BChE assays were acetylthiocholine iodide and butyrylthiocholine chloride, respectively. DTNB (5,5′-Dithio-bis(2-nitrobenzoic) acid) was used for monitoring the cholinesterase activity.
Experiment [3] concerns the target T1, α-amylase (porcine pancreas source) (Sus scrofa, UniProt P00690).
T1 construct: A porcine pancreas source of α-amylase (50 µL), 25 µL of the samples; from tissue; host or cells: porcine pancreas
T1 sequence (P00690 16-511): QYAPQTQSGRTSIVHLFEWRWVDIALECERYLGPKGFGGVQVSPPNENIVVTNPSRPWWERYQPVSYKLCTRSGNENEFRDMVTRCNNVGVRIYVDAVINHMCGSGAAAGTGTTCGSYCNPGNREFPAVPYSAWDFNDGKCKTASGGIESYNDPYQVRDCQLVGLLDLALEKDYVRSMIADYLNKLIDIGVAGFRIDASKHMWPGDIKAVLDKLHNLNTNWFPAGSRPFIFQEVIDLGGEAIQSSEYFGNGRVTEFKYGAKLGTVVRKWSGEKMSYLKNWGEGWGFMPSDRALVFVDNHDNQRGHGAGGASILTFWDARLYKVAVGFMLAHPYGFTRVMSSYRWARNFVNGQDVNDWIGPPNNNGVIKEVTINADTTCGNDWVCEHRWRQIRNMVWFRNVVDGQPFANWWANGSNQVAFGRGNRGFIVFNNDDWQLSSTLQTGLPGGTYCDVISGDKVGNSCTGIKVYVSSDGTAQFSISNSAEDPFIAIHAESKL
The experiment can be described thus: α-Amylase inhibitory assay (starch iodine protocol). The experiment is classed as biochemical.
Experimental: In the α-amylase inhibition assay, the starch iodine protocol was used with few changes [62, 63]. A porcine pancreas source of α-amylase (50 µL), 25 µL of the samples, 6 mM NaCl, and phosphate buffer (pH 6.9) solution were mixed in a 96-well microplate and incubated at 37 °C for 10 min. Then, 50 µL of 0.05% starch solution was added to the reaction mixture and further incubated under the same conditions, after which Lugol (100 µL) and HCl (0.1 M, 25 µL) solutions were added to complete the reaction.

For experiment [4], the target named is α-glucosidase (fungal source from Saccharomyces cerevisiae). The experiment can be described thus: α-Glucosidase inhibitory assay (PNPG). It counts as biochemical. Also noted: IC50 ± SEM (α-glucosidase): unit not given beside the values. Conditions: for IC50 ± SEM (α-glucosidase): Table 2, repeats Table 1, unit not given; for α-Glucosidase IC50: maximum concentration 200 µg/mL, means ± SEM of three measurements.

[5] abbreviates: evaluated up to 100 µg/mL, means ± SEM of three measurements, read-out: AChE IC50 (converted).
Where [6] appears, read: evaluated up to 100 µg/mL, means ± SEM of three measurements, read-out: BChE IC50 (converted).
Where [7] appears, read: Table 3, repeats Table 1, unit inferred, read-out: IC50 ± SEM (Butyrylcholinesterase).
[8] abbreviates: Table 3, repeats Table 1, unit inferred, read-out: IC50 ± SEM (Acetylcholinesterase).
Setting [9] is: read-out: IC50 ± SEM (α-amylase), Table 2, repeats Table 1, unit inferred.

Chain of AChE (electric eel source) (O42275 24-633): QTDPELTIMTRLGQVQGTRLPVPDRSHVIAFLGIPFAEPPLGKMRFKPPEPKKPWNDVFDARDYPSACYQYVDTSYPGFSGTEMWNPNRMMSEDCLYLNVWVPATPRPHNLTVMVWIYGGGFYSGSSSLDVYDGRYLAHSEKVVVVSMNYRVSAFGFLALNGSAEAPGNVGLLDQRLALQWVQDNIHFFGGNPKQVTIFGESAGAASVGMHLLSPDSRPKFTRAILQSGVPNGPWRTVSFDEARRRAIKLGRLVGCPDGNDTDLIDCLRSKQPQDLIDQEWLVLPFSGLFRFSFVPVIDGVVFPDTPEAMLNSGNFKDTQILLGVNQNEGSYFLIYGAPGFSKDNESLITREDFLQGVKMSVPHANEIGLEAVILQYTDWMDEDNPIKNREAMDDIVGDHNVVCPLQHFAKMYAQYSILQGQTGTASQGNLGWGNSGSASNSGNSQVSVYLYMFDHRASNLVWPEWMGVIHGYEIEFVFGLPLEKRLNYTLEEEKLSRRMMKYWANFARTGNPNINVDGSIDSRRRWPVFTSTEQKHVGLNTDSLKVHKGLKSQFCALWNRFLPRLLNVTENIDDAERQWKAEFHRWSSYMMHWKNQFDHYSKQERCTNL

For the compound `COc1c(O)cc2c(=O)oc3c(OC)c(O)cc4c(=O)oc1c2c34` [Compound 1, 3,3′-di-O-methyl ellagic acid], the values for the concentration for half-maximal inhibition (IC50) in experiment [1] (setting [5]), in experiment [2] (setting [6]) and in experiment [3] were 142 µM, 153 µM and 203 µM, respectively. Also, in experiment [4], the “IC50 ± SEM (α-glucosidase)” value is 74.18 ± 0.29. Further, the “α-Glucosidase IC50” value in experiment [4] worked out at 74.18 ± 0.29 µg/mL.

Consider `COc1cc2c(=O)oc3c(OC)c(O[C@@H]4OC[C@@H](O)[C@H](O)[C@H]4O)cc4c(=O)oc(c1OC)c2c34` [Compound 2, 3,3′,4′-tri-O-methyl ellagic acid-4-O-β-D-xylopyranoside], for which the IC50 is 129 µM in experiment [1] (setting [5]), > 210 µM in experiment [2] (setting [7]), > 210 µM in experiment [2] (setting [6]) and 216 µM in experiment [3]. The “IC50 ± SEM (α-glucosidase)” value in experiment [4] stood at 121.51 ± 0.65. In addition, the “α-Glucosidase IC50” value in experiment [4] turned out to be 121.51 ± 0.65 µg/mL.

On to `COc1cc2c(=O)oc3c(OC)c(O[C@@H]4O[C@H](CO)[C@@H](O)[C@H](O)[C@H]4O)cc4c(=O)oc(c1OC)c2c34` [Compound 3, 3,3′,4′-tri-O-methyl ellagic acid-4-O-β-D-glucopyranoside], for which the IC50 in experiment [1] (setting [5]) is 118 µM; in experiment [2] (setting [6]), 149 µM; in experiment [3], 217 µM. Further, the “IC50 ± SEM (α-glucosidase)” value in experiment [4] came out at 137.51 ± 0.81. Also, in experiment [4], the “α-Glucosidase IC50” value was 137.51 ± 0.81 µg/mL.

In the case of `COc1c(O)cc2c(=O)oc3c(OC)c(O[C@@H]4O[C@H](CO)[C@@H](O)[C@H](O)[C@H]4O)cc4c(=O)oc1c2c34` [Compound 4, 3,3′-di-O-methyl ellagic acid-4-O-β-D-glucopyranoside], the IC50 was 129 µM in experiment [1] (setting [5]), 182 µM in experiment [2] (setting [6]) and 185 µM in experiment [3]. Moreover, the “IC50 ± SEM (α-glucosidase)” value in experiment [4] is on record as 97.75 ± 0.49. Besides, in experiment [4], the “α-Glucosidase IC50” value is listed as 97.75 ± 0.49 µg/mL.

On to `CC1OC(Oc2c(-c3cc(O)c(O)c(O)c3)oc3cc(O)cc(O)c3c2=O)C(O)C(O)C1O` (stereo not drawn) [Compound 5, myricetin-3-O-rhamnoside], for which the half-inhibitory concentration (IC50) in experiment [1] (setting [8]) is > 215 µM; in experiment [1] (setting [5]) it was > 215 µM; in experiment [2], > 215 µM; in experiment [2] (read-out: IC50 ± SEM (Butyrylcholinesterase), Table 3, repeats Table 1, unit inferred) it was > 215 µM; in experiment [3] it was 140 µM. Also, in experiment [4], the “IC50 ± SEM (α-glucosidase)” value was 69.02 ± 0.65. Also, the “α-Glucosidase IC50” value in experiment [4] is recorded as 69.02 ± 0.65 µg/mL.

As for `O=C(O)C1=C[C@@H](O)[C@@H](O)[C@H](O)C1` [Compound 6, shikimic acid], the IC50 in experiment [1] (setting [5]) is 317 µM; in experiment [2], 337 µM; in experiment [3], > 1150 µM; in experiment [3] (setting [9]), > 1150 µM. Moreover, the “IC50 ± SEM (α-glucosidase)” value in experiment [4] is recorded as >200. In experiment [4], the “α-Glucosidase IC50” value is listed as >200 µg/mL.

Consider `CC1(C)CC[C@]2(C(=O)O)CC[C@]3(C)C(=CC[C@@H]4[C@@]5(C)C[C@@H](O)[C@H](O)[C@@](C)(CO)[C@@H]5CC[C@]43C)[C@@H]2[C@@H]1O` [Compound 7, arjungenin], for which the 50% inhibitory concentration (IC50) was 106 µM in experiment [1] (setting [5]), > 198 µM in experiment [2] (setting [7]), > 198 µM in experiment [2] (setting [6]) and 369 µM in experiment [3]. Besides, the “IC50 ± SEM (α-glucosidase)” value in experiment [4] came out at 192.17 ± 0.78. Also, the “α-Glucosidase IC50” value in experiment [4] was determined as 192.17 ± 0.78 µg/mL.

For `CC1(C)CC[C@]2(C(=O)O)CC[C@]3(C)C(=CC[C@@H]4[C@@]5(C)C[C@@H](O)[C@H](O)[C@@](C)(CO)[C@@H]5[C@H](O)C[C@]43C)[C@@H]2C1` [Compound 8, terminolic acid], the IC50 was 130 µM in experiment [1] (setting [5]), > 198 µM in experiment [2] (setting [7]), > 198 µM in experiment [2] (setting [6]) and 289 µM in experiment [3]. Also, the “IC50 ± SEM (α-glucosidase)” value in experiment [4] came to 155.84 ± 0.31. Also, the “α-Glucosidase IC50” value in experiment [4] turned out to be 155.84 ± 0.31 µg/mL.

Take `CC1(C)CCC2(C(=O)OC3OC(CO)C(O)C(O)C3O)CCC3(C)C(=CCC4C5(C)CC(O)C(O)C(C)(C)C5CCC43C)C2C1O` (stereo not drawn) [Compound 9, 24-deoxysericoside]: the IC50 was > 154 µM in experiment [1] (setting [8]); > 154 µM in experiment [1] (setting [5]); > 154 µM in experiment [2] (setting [7]); > 154 µM in experiment [2] (setting [6]); > 307 µM in experiment [3]; > 307 µM in experiment [3] (setting [9]). In addition, in experiment [4], the “IC50 ± SEM (α-glucosidase)” value was >200. In addition, in experiment [4], the “α-Glucosidase IC50” value was >200 µg/mL.

On to `CC1(C)CC[C@]2(C(=O)O[C@@H]3O[C@H](CO)[C@@H](O)[C@H](O)[C@H]3O)CC[C@]3(C)C(=CC[C@@H]4[C@@]5(C)C[C@@H](O)[C@H](O)[C@@](C)(CO)[C@@H]5CC[C@]43C)[C@@H]2[C@@H]1O` [Compound 10, arjunglucoside I], for which the 50% inhibitory concentration (IC50) in experiment [1] (setting [5]) was 148 µM; in experiment [2] (setting [7]) it was > 150 µM; in experiment [2] (setting [6]), > 150 µM; in experiment [3], > 300 µM; in experiment [3] (setting [9]), > 300 µM. Besides, the “IC50 ± SEM (α-glucosidase)” value in experiment [4] is reported as >200. Moreover, the “α-Glucosidase IC50” value in experiment [4] is recorded as >200 µg/mL.

As to `CC1(C)CC[C@]2(C(=O)O[C@@H]3O[C@H](CO)[C@@H](O)[C@H](O)[C@H]3O)CC[C@]3(C)C(=CC[C@@H]4[C@@]5(C)C[C@@H](O)[C@H](O)[C@@](C)(CO)[C@@H]5[C@H](O)C[C@]43C)[C@@H]2C1` [Compound 11, chebuloside II], the IC50 in experiment [1] (setting [8]) is > 150 µM; in experiment [1] (setting [5]), > 150 µM; in experiment [2] (setting [7]), > 150 µM; in experiment [2] (setting [6]), > 150 µM; in experiment [3] it was > 300 µM; in experiment [3] (setting [9]), > 300 µM. Further, the “IC50 ± SEM (α-glucosidase)” value in experiment [4] is reported as >200. For the same compound, the “α-Glucosidase IC50” value in experiment [4] is >200 µg/mL.

A word on the IC50: it is the concentration that inhibits the measured activity by half.
